The data set concerns Rosa26 cells. In words: Apoptosis and cell death, annexin V and propidium iodide staining, flow cytometry, Rosa26 cells. It is filed as cell-based, mouse. The settings on record: indicated levels of IPTG (0, 250 pM, 2.5 μM, 1 mM). The protocol:
Rosa26fibroblasts were obtained from embryonic day 14.5 Rosa26-R mice. The cells were maintained in embryonic fibroblast medium (high-glucose DMEM, 10% FBS, penicillin/streptomycin, L-glutamine, and sodium pyruvate) and grown in a humidified 5% CO2, 37CC incubator. These cells were transfected with 0.8 μg of LTRi-cre and LTRi-bax using Lipofectamine 2000 reagent (Invitrogen). The LTRi-cre cells were analyzed by β-galactosidase staining 48 hr after transfection. The LTRi-bax cells were stained and analyzed by flow cytometry 48 hr after transfection. […]
Cells were grown in 12-well plates, and 24 hr after plating, they were transfected with 0.8 μg of LTRi-bax using Lipofectamine 2000 reagent (Invitrogen) per the manufacturer's protocol and exposed to the indicated levels of IPTG. […] Annexin V has a high affinity for phosphatidylserine; therefore, annexin V conjugated with Alexa Fluor 488 can identify apoptotic cells by binding to phosphatidylserine and can be analyzed by flow cytometry measuring the fluorescence emission at 530 nm (FL1). […] It is impermeable to live and apoptotic cells but stains dead cells with red fluorescence. Dead cells appear red and can be analyzed by flow cytometry measuring the red florescence emission >575 nm (FL3). […]

Results on one molecule are retold here after patent publication US9388425B2, “Tunable genetic switch for regulating gene expression” (TRUSTEES OF BOSTON UNIVERSITY, priority 2006, dated 2016).

Structures are written as SMILES.

Regarding `CC(C)S[C@@H]1O[C@H](CO)[C@H](O)[C@H](O)[C@H]1O` [IPTG, isopropyl-β-thiogalactopyranoside], the “apoptosis or cell death of non-transfected cells exposed to inducer” value is “no change in apoptosis or cell death”.
